Data on two compounds can be found in patent US10213445B2, “Compositions and methods of diazeniumdiolate-based prodrugs for treating cancer” (ARIZONA BOARD OF REGENTS ON BEHALF OF THE UNIVERSITY OF …, priority 2014, dated 2019).

The structures appear in SMILES notation.

The target in one assay is T1, GAPDH in MCF-10A cells (Homo sapiens, UniProt P04406).
T1 construct: host or cells: MDA-MB-231; MCF-10A
Briefly: GAPDH activity in cells. It counts as cell-based. Conditions: 0-100 μM, 1 h, 37° C. Here is the method: (§1) The cells were treated with varied concentrations (0, 25, 50, 75, 100 μM) of IPA/NO-aspirin (blue) or DEA/NO-aspirin (green) for 1 h at 37° C. GAPDH activity was assessed by measuring fluorescence intensity at 570 nm. Data are plotted as mean±SD (n=3).
(§2) GAPDH is a critical glycolytic enzyme that can play an important role in cancer therapy as solid tumors often utilize glycolytic pathways even during normoxia to meet their energy requirements. Thus, inhibition of GAPDH can diminish ATP availability for tumor cells. GAPDH is also involved in initiation of apoptosis and in DNA repair.

In assay [1] the target is T2, GAPDH in MDA-MB-231 cells (Homo sapiens, UniProt P04406).
T2 construct: host or cells: MDA-MB-231; MCF-10A
The assay can be described thus: GAPDH activity in cells. The format is cell-based. Conditions: MDA-MB-231, 0-100 μM, 1 h, 37° C. Here is the method: as §1, §2

The subject of another assay is BCL-2. The assay can be described thus: BCL-2 expression. Conditions: FIG. 18. The format is cell-based.
The test system of the next assay is prostaglandin E2 (PGE2). Conditions: cited from earlier work.
The subject of assay [2] is E-cadherin in MDA-MB-231 cells. The assay can be described thus: E-cadherin expression (RT-PCR, Western blot). It counts as cell-based, human. Conditions: 100 μM, 3, 6 or 12 h; for E-cadherin mRNA expression: RT-PCR; for E-cadherin protein level: Western blot. Here is the method:
The cells were treated with vehicle (black) or 100 μM IPA/NO-aspirin (blue) or DEA/NO-aspirin (green) for 3, 6 or 12 h at 37° C. Relative mRNA expression was measured using RT-PCR techniques. E-cadherin mRNA were quantified with respect to control (1).
The cells were treated with vehicle (black) or 100 μM IPA/NO-aspirin (blue) or DEA/NO-aspirin (green) for 3, 6 or 12 h at 37° C. Protein expression was measured using Western blot techniques. E-cadherin protein levels were quantified with respect to control (100%).
Epithelial cadherin (E-cadherin) is calcium-dependent, membrane-associated cellular adhesion glycoprotein. Loss of E-cadherin-mediated cellular adhesion is a prerequisite for invasion and metastasis of tumor cells. NO is an endogenous mediator of endothelial cell migration. […] However, the effect of HNO on metastasis has not been studied. […] This can result in a reversal of tumor cells from an invasive, mesenchymal, to a benign, epithelial phenotype.
A general note: A western blot detects proteins with antibodies after separation by electrophoresis.

A further assay has as its system ER-α. Briefly: ER-α levels (mRNA of ER1) in ER-α(−) cells. Conditions: FIG. 20. The format is cell-based.
For the next assay, the system named is MDA-MB-231 cells. The assay can be described thus: Alkaline Comet assay of DNA damage. It counts as cell-based, human. The note with it: 75 μM, 8 hours, 37° C. Here is the method: Tail length: mean±SEM, n≥150.
Autoxidation of both NO and HNO leads to species that are capable of damaging DNA. Conversion of NO to N2O3 can induce mutations through base deamination) while the product of the reaction of HNO with O2 can oxidize and cleave DNA. To investigate the possibility of RNS-induced DNA damage as a mechanism of cytotoxicity, the effect of the NONO-aspirin prodrugs was studied with the alkaline Comet assay in MDA-MB-231 cells. After 8 hours, the damage induced by treatment with 50 μM IPA/NO-aspirin was significant (FIG. 7A) and similar to the H2O2 positive control (FIG. 7C). […] This may be an important factor in the observed enhanced cytotoxicity of IPA/NO-aspirin. In particular, IPA/NO-aspirin is able to damage DNA (FIG. 7) including inducing double strand breaks, in a manner similar to radiation therapy and chemotherapies such as doxorubicin.

T2 sequence (P04406 whole entry): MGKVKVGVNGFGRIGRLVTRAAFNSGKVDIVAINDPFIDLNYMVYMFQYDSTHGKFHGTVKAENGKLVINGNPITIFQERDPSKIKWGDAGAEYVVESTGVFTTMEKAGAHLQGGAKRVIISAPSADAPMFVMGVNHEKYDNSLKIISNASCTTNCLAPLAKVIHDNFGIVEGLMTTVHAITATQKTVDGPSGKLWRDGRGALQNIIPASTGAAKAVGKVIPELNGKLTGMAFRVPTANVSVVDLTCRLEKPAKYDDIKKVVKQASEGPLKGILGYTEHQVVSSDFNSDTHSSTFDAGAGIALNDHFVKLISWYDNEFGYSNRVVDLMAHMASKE
T1 sequence (P04406 whole entry): as above

Consider `CC(=O)Oc1ccccc1C(=O)OCON=[N+]([O-])NC(C)C` [IPA/NO-aspirin, O2-(Acetylsalicyloyloxymethyl)-1-(N-isopropylamino)-diazen-1-ium-1,2-diolate], for which the GAPDH activity result on GAPDH in MCF-10A cells is reported as “did not affect GAPDH activity”. Also, in assay [1], the GAPDH activity entry was “inhibited GAPDH activity in a concentration (FIG. 9A) and time-dependent-manner”. In addition, the BCL-2 expression entry with BCL-2 is given as “inhibits the aspirin effect”. Besides, in the assay on prostaglandin E2 (PGE2), the “level of PGE2” value is given as “reduction in PGE2 levels”. In addition, in assay [2], the “E-cadherin mRNA expression” value is recorded as “does not show any significant change” and the E-cadherin protein level result is recorded as “does not show any significant change”. The ER-α levels entry with ER-α is on record as “inhibit the aspirin effect”.

As for `CCN(CC)[N+]([O-])=NOCOC(=O)c1ccccc1OC(C)=O` [DEA/NO-aspirin, O2-(Acetylsalicyloyloxymethyl)-1-(N,N-Diethylamino)-diazen-1-ium-1,2-diolate], at GAPDH in MCF-10A cells, the GAPDH activity result is reported as “not inhibitory in either cell line”. Further, the GAPDH activity entry in assay [1] is given as “not inhibitory in either cell line”. Moreover, in assay [2], the “E-cadherin mRNA expression” value is on record as “did increase E-cadherin expression in a time-dependent manner” and the E-cadherin protein level entry is “did increase E-cadherin expression in a time-dependent manner”. In addition, the “DNA damage (Comet assay)” value in the assay with MDA-MB-231 cells was “did not differ from the DMSO-treated negative control”.
